“Also recorded” adds a separate entry of the source.
Assays:
[1] = tested on: A549 cells; experiment: Proliferation (MTS) and migration/wound healing assay on A549 cells; format: cell-based, human; settings: GDC0449
Method: Proliferation assay was performed by MTS assay (CellTiter 96, Promega), according to manufacturer instructions. […] Migration assay was performed by wound healing assay. Monolayers of cells were: cultured, scratched, treated with media containing proteins and/or drugs at different concentrations: Shh protein, DMSO, and GDC0449, and recorded 0 and 24, 72 and 96 hours after treatment. MTS proliferation assays were performed (CellTiterGlo 96, Promega) according to the manufacturer's instructions. […] Wound healing assays were performed to study cell migration. Monolayers of cells were cultured, scratched, treated with media containing proteins and/or drugs at different concentrations: Shh protein, DMSO, and GDC0449-recorded at 0, 24, 72 and 96 hours after treatment.

[2] = tested on: Shh+ cells (A549); experiment: Shh rate by flow cytometry in drug-treated A549 cells; format: cell-based, human
Method: FACS (1:40). The secondary antibody was a donkey anti-mouse FITC-linked antibody (ab97029, 1:100, Abcam). For cell analysis after treatment assays (chemotherapy or GDC0449), a dead cell marker (SytoxRed, Invitrogen) was also used. For human fresh samples, an anti-CD45 APC-linked antibody (ab28106, 1:100, Abcam), and a dead cells marker (SytoxRed, Invitrogen) were added. For staining of stable transfected cell lines, mouse anti-HA antibody (Abcam, 1:100) and rabbit anti-FLAG antibody (Cell Signaling; 1:400) were used. Corresponding secondary antibodies were donkey anti-mouse AlexaFluor647 (Invitrogen, 1:1000) and donkey anti-rabbit AlexFluor594 (Invitrogen, 1:1000) antibodies. Flow cytometry analyses were performed on AccuriC6 flow cytometer (BD Biosciences), and FACS on FACSAria II (BD Biosciences). Flow analyses were based at least on 200,000 cells, and each test was made at least in triplicate. For all experiments, a negative control with cells processed without primary antibody was used. Sorted cells (Shh+ and Shh− cells) were collected on fresh media, and seeded on culture plates or freezed at −80° C. according to further analyses. Flow cytometry analysis was performed without membrane permeabilization prior to labeling the cells, unless otherwise indicated (e.g., FIG. 1D). Cisplatin was purchased from Sigma, and freshly reconstituted in PBS (2 g/1). Docetaxel was purchased from Tocris Bioscience, reconstituted in DMSO (5 g/1 stock dilution at −20° C.; further dilution in fresh culture medium) for in vitro assays, or reconstituted in ethanol/polysorbate 80 (1:1; 5 g/1 stock dilution at −20° C.; further dilution in PBS) for in vivo assays. GDC0449 was purchased from Selleck Chemicals, and reconstituted in DMSO (30 mM stock dilution). Shh human recombinant protein was obtained from EBioscience, and used at 1200 ng/ml. The mouse Shh-C-terminal antibody (mentioned above) was used for flow cytometry and FACS (1:40). The secondary antibody was a donkey anti-mouse FITC-linked antibody (ab97029, 1:100, Abcam). For cell analysis after treatment assays (chemotherapy or GDC0449), a marker for dead cells (SytoxRed®, Invitrogen) was also used. For fresh human samples, an anti-CD45 APC-linked antibody (ab28106, 1:100, Abcam) was added, and a marker for dead cells (SytoxRed®, Invitrogen). For staining of stable transfected cell lines, a mouse anti-HA antibody (Abcam, 1:100) and a rabbit anti-FLAG antibody (Cell Signaling; 1:400) were used. Corresponding secondary antibodies were donkey anti-mouse AlexaFluor647 (Invitrogen, 1:1 000) and donkey anti-rabbit AlexFluor594 (Invitrogen, 1:1 000). Flow cytometry analyses were performed on an AccuriC6 flow cytometer (BD Biosciences), and FACS on a FACSAria II (BD Biosciences). […]

[3] = tested on: advanced-stage SCLC; settings: cisplatin/etoposide with or without vismodegib, first line; cited from earlier work
[4] = tested on: Shh gene expression; experiment: Shh gene expression by qPCR in drug-treated A549 cells; format: cell-based, human
Method: RNA from unsorted cells was extracted with Qiagen Rneasy® Minikit (Quiagen), according to manufacturer instructions. RNA from sorted cells was extracted with Arcturus PicoPure RNA Isolation Kit (Life technologies). cDNA was then synthesized with iScript cDNA Synthesis Kit (Bio-Rad), according to manufacturer instructions. Commercial primers for Shh gene were obtained from Origen. Quantitative PCR was performed on Applied Biosystems' 7900HT Fast Real-Time PCR System, with triplicate for each gene analysis. Gene expression analysis was calculated with deltaCT method, with normalization with endogenous control (18s gene) (normalized gene expression level=2^−deltaCT(test gene)−deltaCT(18s)). For ddPCR, droplets creation, PCR and results analysis were performed according to manufacturer instructions (BioRad, QX100 ddPCR System, Quantasoft software). Results of ddPCR were expressed as FAM concentrations (copies/μl). RNA from unsorted cells was extracted with Qiagen's RNeasy Mini kit (Qiagen) according to the manufacturer's instructions. […] Quantitative RT-PCR (qRT-PCR) was performed on an Applied Biosystems 7900HT Fast Real-Time PCR System, in triplicate for each sample. Gene expression analysis was calculated with the delta-deltaCT method normalized to an endogenous control (18S gene). […] Results of ddPCR were expressed as FAM concentrations (copies/0).

[5] = tested on: Shh+ cells in A549 xenografts; experiment: Shh rate in A549 xenografts of drug-treated nude mice; format: in vivo
Method: For xenograft formation, female nude mice, 5 to 10 weeks old, were injected subcutaneously (SC) with 10 million A549 cells in the dorsal area in a volume of […]. For SC inoculation of sorted cells, 1,500 cells of A549 Shh+ or Shh− cells were injected in a volume of […]. For intra-veinous injection of sorted cells, 1,000 cells of A549 Shh+ or Shh− cells were injected in the tail vein. For the in vivo treatment assay, after xenograft formation, animals were injected intravenously with cisplatin (10 mg/kg weekly), docetaxel (10 mg/kg twice a week) or vehicle, and intraperitoneally with GDC0449 (20 mg/kg daily) or vehicle. Each group consisted in 4-5 mice. Tumor size was determined twice a week, and tumor volumes were calculated using width (x) and length (y) (x^2y/2, where x<y). Tumors were collected after mice euthanasia, and cell dissociation was performed as for fresh human samples (cf supra). Flow cytometry and FACS were done as described supra. All animals were cared in accord with University of California San Francisco (UCSF) guidelines.
For xenograft formation, 5-10 week-old female nude mice, were injected subcutaneously (SC) with 10 million A549 cells in the dorsal area in a volume of 100 μl. […] Tumor size was determined twice a week, and tumor volumes were calculated using width (x) and length (y) (x^2y/2, where x<y). […]

[6] = tested on: A549 cells; experiment: Tumor formation after inoculation of GDC0449 pre-treated A549 cells; format: in vivo, nude mice; settings: A549 cells pre-treated with 40 μM GDC0449, 1 million cells subcutaneous, versus DMSO pre-treated
Excerpt: Then, nude mice were inoculated (sub-cutaneous) with 1 million treated cells (still adherent to the culture flask after treatment with GDC0449). […] Then, nude mice were inoculated subcutaneously with 1 million treated cells (still adherent to the culture flask after treatment with GDC0449).

[7] = tested on: most chemo-resistant NSCLC cell lines; settings: previous study; cited from earlier work
[8] = tested on: A549 cells; experiment: Viability of A549 cells treated with Shh antibodies ± GLI inhibitor 249C; format: cell-based, human; settings: Homo sapiens, A549
Method: The effect of the C-terminal Shh antibodies from clones 2G4 and 2D9 on the viability of A549 cells was determined. A549 cells were exposed to increasing concentrations of the C-terminal Shh antibodies (2G4, 2D9), or antibodies against the N-terminal portion of Shh protein (6D3, 2E1), and the effective dose (ED50) was determined (assay 1: FIG. 16A; assay 2: FIG. 16B). […] Possibly due to the fact that very few cells express full-length Shh on the cell surface, the cytotoxic effect of the C-terminal Shh antibodies was not as potent as the cytotoxic effect of the N-terminal antibodies.
Next, the cytotoxicity of the C-terminal Shh antibodies was tested when the antibodies were used in conjunction with a small-molecule inhibitor of GLI zinc-finger transcription factor signaling, 249C (4-(5-chlorofuran-2-yl)-1,3-bis(2,4-difluorophenyl)-5-methyl-N-((4-methylmorpholin-2-yl)methyl)-4,5-dihydro-1H-pyrazole-5-carboxamide; Compound 135 above). A549 cells were exposed to varying concentrations of the C-terminal antibodies (2G4, 2D9) or the N-terminal antibodies (6D3, 2E1), in the presence or absence of a very low dose (40 nM) of 249C. (The IC50 of 249C in A549 cells is ˜70 nM.)

[9] = tested on: advanced SCLC; settings: sonidegib in addition to cisplatin/etoposide; cited from earlier work
[10] = target: full-length human Sonic Hedgehog (Shh) expressed in cells (endogenous, or transfected with pCMV-Shh) (human) (UniProt Q15465); experiment: flow cytometry, cells transfected with full-length Shh
[11] = target: full-length human Sonic Hedgehog (Shh) expressed in cells (endogenous, or transfected with pCMV-Shh) (human) (UniProt Q15465); experiment: flow cytometry of ground up permeabilised A549 xenograft tumour cells from control IgG-treated mice
[12] = target: full-length human Sonic Hedgehog (Shh) expressed in cells (endogenous, or transfected with pCMV-Shh) (human) (UniProt Q15465); experiment: FACS of non-permeabilised A549 cells labeled with the antibody; Total Cells Sorted 19 million, % Shh+ Cells 0.06%
[13] = target: full-length human Sonic Hedgehog (Shh) expressed in cells (endogenous, or transfected with pCMV-Shh) (human) (UniProt Q15465); experiment: flow cytometry, untransfected cells (No transfection)
[14] = target: full-length human Sonic Hedgehog (Shh) expressed in cells (endogenous, or transfected with pCMV-Shh) (human) (UniProt Q15465); experiment: flow cytometry, A549 cells transfected with pCMV-Shh
[15] = target: full-length human Sonic Hedgehog (Shh) expressed in cells (endogenous, or transfected with pCMV-Shh) (human) (UniProt Q15465); experiment: FACS of non-permeabilised A549 cells
[16] = target: full-length human Sonic Hedgehog (Shh) expressed in cells (endogenous, or transfected with pCMV-Shh) (human) (UniProt Q15465); experiment: flow cytometry, A549 + vector control (endogenous Shh)
[17] = tested on: A549 Shh− cells; experiment: Migration/wound healing assay on A549 Shh− cells; format: cell-based, human; settings: Shh recombinant protein 1200 ng/mL, day 3
Method: Migration assay was performed by wound healing assay. Monolayers of cells were: cultured, scratched, treated with media containing proteins and/or drugs at different concentrations: Shh protein, DMSO, and GDC0449, and recorded 0 and 24, 72 and 96 hours after treatment.
Wound healing assays were performed to study cell migration. Monolayers of cells were cultured, scratched, treated with media containing proteins and/or drugs at different concentrations: Shh protein, DMSO, and GDC0449-recorded at 0, 24, 72 and 96 hours after treatment.

[18] = target: T1, recombinant full-length Shh protein (human, UniProt Q15465 24-462, limits assumed); experiment: BLI (Octet), response (nm) against Shh conc (nM), four points between about 28 and 165 nM, fitted line, R2 = 0.97
T1 construct: Printed only as 'full-length recombinant Shh protein'; also called full-length recombinant Shh protein

[19] = target: T1, recombinant full-length Shh protein; experiment: BLI (Octet), response (nm) against Shh conc (nM), four points between about 28 and 165 nM, fitted line, R2 = 0.98

With `CS(=O)(=O)c1ccc(C(=O)Nc2ccc(Cl)c(-c3ccccn3)c2)c(Cl)c1` [GDC0449] the “cell proliferation and migration” value [1] was “inhibition of cell proliferation and migration”, the “Shh rate post-chemotherapy combined with GDC0449 compared to chemotherapy alone” value ([2]; A549 cells, cisplatin or docetaxel plus GDC0449 40 μM) was “significant decrease; also recorded: decreased significantly” and the “Shh+ cells in pre-inoculated A549 cells” value ([2]; GDC0449 40 μM, day 3) was 0%. The “response rate, PFS or OS” value [3] was “No effect”, the “Shh gene expression (qPCR)” value ([4]; post-GDC0449 treatment, 20 μM and 40 μM) was “dramatic decrease” and the “Shh rate in A549 xenografts, sequential assay” value ([5]; cisplatin 10 mg/kg IV weekly, then GDC0449 20 mg/kg IP daily) was “significant reduction”. For the same molecule, the “Shh rate in A549 xenografts, combination treatment compared to chemotherapy alone” value ([5]; docetaxel 10 mg/kg twice a week plus GDC0449 20 mg/kg IP daily) was “significant reduction”, the “tumor formation from pre-treated cells” value [6] was “completely inhibited” and the “effect with cisplatin in vitro” value [7] was “synergistic effect”.

With `N.N.[Cl][Pt][Cl]` [cisplatin] the “Shh rate, Shh+ cells of live cells” value ([2]; A549 cells, cisplatin 1 mM, 72 h) was 5%, the “Shh rate with escalating doses” value ([2]; NSCLC cells, escalating doses of cisplatin) was “absolute augmentation” and the “Shh gene expression (qPCR)” value ([4]; after cisplatin treatment) was “elevation”.

`CN1CCOC(CNC(=O)C2(C)C(c3ccc(Cl)o3)C(c3ccc(F)cc3F)=NN2c2ccc(F)cc2F)C1` (stereo not drawn) [Ab 249C, 4-(5-chlorofuran-2-yl)-1,3-bis(2,4-difluorophenyl)-5-methyl-N-((4-methylmorpholin-2-yl)methyl)-4,5-dihydro-1H-pyrazole-5-carboxamide] showed an IC50 [8] of ~70 nM.

In the case of `Cc1c(C(=O)Nc2ccc(N3C[C@@H](C)O[C@@H](C)C3)nc2)cccc1-c1ccc(OC(F)(F)F)cc1` [sonidegib, N-[6-[(2S,6R)-2,6-Dimethylmorpholin-4-yl]pyridin-3-yl]-2-methyl-3-[4-(trifluoromethoxy)phenyl]benzamide], the response rate [9] is given as 79%.

Work on “commercial C-terminal Shh antibody (Abcam ab53281, rabbit)” yielded a % of cells labeled [10] of 2.45%, a % Shh-labeled cells [11] of 80% and a # Shh+ Cells [12] of 3810 cells. For the same molecule, the % of cells labeled [13] was 0.11%, the % of cells labeled [14] was 5.1% and the % Shh+ cells sorted [15] was 0.06%. The % of cells labeled [16] was 1%.

In the case of “human recombinant N-terminal Shh peptide: Shh human recombinant protein from eBioscience, used at 1200 ng/ml”, the “augmentation in the migration rate” value [17] is reported as 15%.

B1: Ab 1C11-2D9 (antibody, mouse IgG1, kappa, V domains shown)
VH: EVKLVESGGGLVKPGGSLKLSCAASGFTFSSYTMSWVRQTPAKRLEWVATISSGGGNTYYPDSVKGRFTISRDNARNTLYLQMSSLRSEDTAMYYCARDYRSLFAYWGQGTLVTVSA
VL: QIVLTQSPAIMSASPGEKVTITCSASSSVSYMHWFQQKPGTSPKLWIYSTSNLASGVPARFSGSGSGTSYSLTISRMEAEDAATYYCQQRSSYPFTFGSGTKLEIKR
notes: also called clone 2D9; Ab11-2D9
B1 gave a Kd [18] of 4.6 nM.

B2: Ab 1C11-2G4 (antibody, IgG1, V domains shown)
VH: EVKLVESGGGLVKPGGSLKLSCAASGFTFSSYTMSWVRQTPAKRLEWVATISSGGGNTYYPDSVKGRFTISRDNARNTLYLQMSSLRSEDTAMYYCARDYRSLFAYWGQGTLVTVSA
VL: QIVLTQSPAIMSASPGEKVTITCSASSSVSYMHWFQQKPGTSPKLWIYSTSNLASGVPARFSGSGSGTSYSLTISRMEAEDAATYYCQQRSSYPFTFGSGTKLEIK
notes: also called clone 2G4; Ab 2G4
For B2, the Kd [19] was 4 nM.

Reference: patent publication US11479601B2, “Antibodies specific to Sonic Hedgehog and method of use thereof” (The Regents of the University of California, priority 2016, dated 2022)
